Consider 36 compounds from patent US9018388B2, “Pesticidal compositions and processes related thereto” (Dow AgroSciences LLC, priority 2012, dated 2015).

Each structure is given as a SMILES string.

The subject of experiment [1] is Beet Armyworm (BAW) (Spodoptera exigua). Put plainly: Bioassay on beet armyworm (BAW), 128-well diet tray assay. The class given is in vivo. The settings on record: Spodoptera exigua; Beet armyworm, 50 μg/cm^2; read-out: % Mortality BAW 50 μg/cm^2. In outline: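 Second-instar Spodoptera exigua larvae, one to five per well, on artificial diet treated with 50 μg/cm^2 compound in 90:10 acetone-water and dried, eight wells per compound. Held at 25 °C, 14:10 light-dark for five to seven days; percent mortality averaged over wells.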

Experiment [2] deals with Corn Earworm (CEW) (Helicoverpa zea). Kind of experiment: Bioassay on corn earworm (CEW), 128-well diet tray assay. The class given is in vivo. Conditions: Helicoverpa zea; Corn earworm, 50 μg/cm^2; read-out: % Mortality CEW 50 μg/cm^2. In a few lines: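 Second-instar Helicoverpa zea larvae (one to five per well) placed on artificial diet treated with 50 μg/cm^2 compound in 90:10 acetone-water, dried, eight wells per compound. Held at 25 °C, 14:10 light-dark, five to seven days; percent mortality averaged over wells.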

Take `CCC(C)c1ccccc1N1/C(=N/N=C/c2ccc(-c3ncn(-c4ccc(OC(F)(F)F)cc4)n3)cc2)SCCC1C` (stereo not drawn) [Compound 220C]: the pest or weed control at 50 µg/cm2, 50 µg/cm2 in experiment [1] and in experiment [2] was 50 to 100% each time.

Consider `CC1CCS/C(=N\N=C\c2ccc(-c3ncn(-c4ccc(OC(F)(F)F)cc4)n3)cc2)N1c1ccccc1OC(F)F` (stereo not drawn) [Compound 221C], for which the pest or weed control at 50 µg/cm2, 50 µg/cm2 in experiment [1] and in experiment [2] was 50 to 100% throughout.

As to `CC1CCS/C(=N\N=C\c2ccc(-c3ncn(-c4ccc(OC(F)(F)F)cc4)n3)cc2)N1c1ccccc1C(C)(C)C` (stereo not drawn) [Compound 222C], the pest or weed control at 50 µg/cm2, 50 µg/cm2 in experiment [1] and in experiment [2] was 50 to 100% throughout.

Consider `Cc1cccc(C)c1N1C(=O)CCS/C1=N\N=C\c1ccc(-c2ncn(-c3ccc(OC(F)(F)F)cc3)n2)cc1` [Compound 223C], for which the pest or weed control at 50 µg/cm2, 50 µg/cm2 in experiment [1] and in experiment [2] was 50 to 100% in each case.

On to `CCc1cccc(C)c1N1C(=O)CCS/C1=N\N=C\c1ccc(-c2ncn(-c3ccc(OC(F)(F)F)cc3)n2)cc1` [Compound 225C], for which the pest or weed control at 50 µg/cm2, 50 µg/cm2 in experiment [1] and in experiment [2] was 50 to 100% each time.

As for `O=C1CCS/C(=N\N=C\c2ccc(-c3ncn(-c4ccc(OC(F)(F)F)cc4)n3)cc2)N1c1c(F)cccc1F` [Compound 226C], the pest or weed control at 50 µg/cm2, 50 µg/cm2 in experiment [1] and in experiment [2] was 50 to 100% each time.

For `Cc1cccc(Cl)c1N1C(=O)CCS/C1=N\N=C\c1ccc(-c2ncn(-c3ccc(OC(F)(F)F)cc3)n2)cc1` [Compound 227C], the pest or weed control at 50 µg/cm2, 50 µg/cm2 in experiment [1] and in experiment [2] was 50 to 100% each time.

With `O=C1CCS/C(=N\N=C\c2ccc(-c3ncn(-c4ccc(OC(F)(F)F)cc4)n3)cc2)N1c1c(Cl)cccc1C(F)(F)F` [Compound 228C], the pest or weed control at 50 µg/cm2, 50 µg/cm2 in experiment [1] and in experiment [2] was 50 to 100% throughout.

On to `CC(F)(F)Oc1ccccc1N1C(=O)CCS/C1=N\N=C\c1ccc(-c2ncn(-c3ccc(OC(F)(F)F)cc3)n2)cc1` [Compound 229C], for which the pest or weed control at 50 µg/cm2, 50 µg/cm2 in experiment [1] and in experiment [2] was 50 to 100% throughout.

Take `CCC(C)c1ccccc1N1C(=O)CCS/C1=N\N=C\c1ccc(-c2ncn(-c3ccc(OC(F)(F)F)cc3)n2)cc1` (stereo not drawn) [Compound 230C]: the pest or weed control at 50 µg/cm2, 50 µg/cm2 in experiment [1] and in experiment [2] was 50 to 100% in each case.

In the case of `COc1ccc(N2C(=O)CCS/C2=N\N=C\c2ccc(-c3ncn(-c4ccc(OC(F)(F)F)cc4)n3)cc2)c(C)c1` [Compound 231C], the pest or weed control at 50 µg/cm2, 50 µg/cm2 in experiment [1] and in experiment [2] was 50 to 100% throughout.

With `CC(C)(C)c1ccccc1N1C(=O)CCS/C1=N\N=C\c1ccc(-c2ncn(-c3ccc(OC(F)(F)F)cc3)n2)cc1` [Compound 232C], the pest or weed control at 50 µg/cm2, 50 µg/cm2 in experiment [1] and in experiment [2] was 50 to 100% each time.

Consider `O=C1CCS/C(=N\N=C\c2ccc(-c3ncn(-c4ccc(OC(F)(F)F)cc4)n3)cc2)N1c1ccccc1OC(F)F` [Compound 233C], for which the pest or weed control at 50 µg/cm2, 50 µg/cm2 in experiment [1] and in experiment [2] was 50 to 100% each time.

Take `Cc1cccc(C(C)C)c1N1C(=O)CS/C1=N\N=C\c1ccc(-c2ncn(-c3ccc(OC(F)(F)F)cc3)n2)cc1` [Compound 238C]: the pest or weed control at 50 µg/cm2, 50 µg/cm2 in experiment [1] and in experiment [2] was 50 to 100% in each case.

Regarding `CC(C)c1ccccc1N1CS/C1=N\N=C\c1ccc(-c2ncn(-c3ccc(OC(F)(F)F)cc3)n2)cc1` [Compound 240C], the pest or weed control at 50 µg/cm2, 50 µg/cm2 in experiment [1] and in experiment [2] was 50 to 100% in each case.

Turning to `Cc1cccc(C)c1N1CS/C1=N\N=C\c1ccc(-c2ncn(-c3ccc(OC(F)(F)F)cc3)n2)cc1` [Compound 241C], the pest or weed control at 50 µg/cm2, 50 µg/cm2 in experiment [1] and in experiment [2] was 50 to 100% in each case.

For `COc1cc(C)c(N2CS/C2=N\N=C\c2ccc(-c3ncn(-c4ccc(OC(F)(F)F)cc4)n3)cc2)c(C)c1` [Compound 242C], the pest or weed control at 50 µg/cm2, 50 µg/cm2 in experiment [1] and in experiment [2] was 50 to 100% throughout.

For the compound `CCc1cccc(C)c1N1CS/C1=N\N=C\c1ccc(-c2ncn(-c3ccc(OC(F)(F)F)cc3)n2)cc1` [Compound 243C], the pest or weed control at 50 µg/cm2, 50 µg/cm2 in experiment [1] and in experiment [2] was 50 to 100% throughout.

For the compound `FC(F)(F)Oc1ccc(-n2cnc(-c3ccc(/C=N/N=C4\SCN4c4c(Cl)cccc4Cl)cc3)n2)cc1` [Compound 244C], the pest or weed control at 50 µg/cm2, 50 µg/cm2 in experiment [1] and in experiment [2] was 50 to 100% in each case.

On to `Fc1cccc(F)c1N1CS/C1=N\N=C\c1ccc(-c2ncn(-c3ccc(OC(F)(F)F)cc3)n2)cc1` [Compound 245C], for which the pest or weed control at 50 µg/cm2, 50 µg/cm2 in experiment [1] and in experiment [2] was 50 to 100% each time.

Take `Cc1cccc(Cl)c1N1CS/C1=N\N=C\c1ccc(-c2ncn(-c3ccc(OC(F)(F)F)cc3)n2)cc1` [Compound 246C]: the pest or weed control at 50 µg/cm2, 50 µg/cm2 in experiment [1] and in experiment [2] was 50 to 100% throughout.

On to `CC(C)c1ccccc1N1CS/C1=N\N=C\c1ccc(-c2ncn(-c3ccc(OC(F)(F)C(F)(F)F)cc3)n2)cc1` [Compound 247C], for which the pest or weed control at 50 µg/cm2, 50 µg/cm2 in experiment [1] and in experiment [2] was 50 to 100% in each case.

As to `C/C(=N\N=C1/SCN1c1ccccc1C(C)C)c1ccc(-c2ncn(-c3ccc(OC(F)(F)F)cc3)n2)cc1` [Compound 248C], the pest or weed control at 50 µg/cm2, 50 µg/cm2 in experiment [1] and in experiment [2] was 50 to 100% in each case.

With `CC(C)c1ccccc1N1CS/C1=N\N=C\c1ccc(-c2ncn(-c3ccc4c(c3)OC(F)(F)O4)n2)cc1` [Compound 249C], the pest or weed control at 50 µg/cm2, 50 µg/cm2 in experiment [1] and in experiment [2] was 50 to 100% throughout.

Regarding `CC(C)c1cccc(F)c1N1CS/C1=N\N=C\c1ccc(-c2ncn(-c3ccc(OC(F)(F)F)cc3)n2)cc1` [Compound 250C], the pest or weed control at 50 µg/cm2, 50 µg/cm2 in experiment [1] and in experiment [2] was 50 to 100% in each case.

With `CC(C)c1ccc(F)cc1N1CS/C1=N\N=C\c1ccc(-c2ncn(-c3ccc(OC(F)(F)F)cc3)n2)cc1` [Compound 251C], the pest or weed control at 50 µg/cm2, 50 µg/cm2 in experiment [1] and in experiment [2] was 50 to 100% throughout.

As for `CC(C)c1cc(F)ccc1N1CS/C1=N\N=C\c1ccc(-c2ncn(-c3ccc(OC(F)(F)F)cc3)n2)cc1` [Compound 252C], the pest or weed control at 50 µg/cm2, 50 µg/cm2 in experiment [1] and in experiment [2] was 50 to 100% each time.

As for `CC(C)c1c(F)cccc1N1CS/C1=N\N=C\c1ccc(-c2ncn(-c3ccc(OC(F)(F)F)cc3)n2)cc1` [Compound 253C], the pest or weed control at 50 µg/cm2, 50 µg/cm2 in experiment [1] and in experiment [2] was 50 to 100% each time.

With `CCc1ccccc1N1CS/C1=N\N=C\c1ccc(-c2ncn(-c3ccc(OC(F)(F)F)cc3)n2)cc1` [Compound 254C], the pest or weed control at 50 µg/cm2, 50 µg/cm2 in experiment [1] and in experiment [2] was 50 to 100% throughout.

On to `CC(C)c1ccc(F)cc1N1CS/C1=N\N=C\c1ccc(-c2ncn(-c3ccc(C(F)(F)F)cc3)n2)cc1` [Compound 255C], for which the pest or weed control at 50 µg/cm2, 50 µg/cm2 in experiment [1] and in experiment [2] was 50 to 100% throughout.

With `CC(C)c1ccc(F)cc1N1CS/C1=N\N=C\c1ccc(-c2ncn(-c3ccc(OC(F)(F)C(F)(F)F)cc3)n2)cc1` [Compound 256C], the pest or weed control at 50 µg/cm2, 50 µg/cm2 in experiment [1] and in experiment [2] was 50 to 100% in each case.

As for `CC(C)c1ccc(F)cc1N1CS/C1=N\N=C\c1ccc(-c2ncn(-c3ccc(C(F)(C(F)(F)F)C(F)(F)F)cc3)n2)cc1` [Compound 257C], the pest or weed control at 50 µg/cm2, 50 µg/cm2 in experiment [1] and in experiment [2] was 50 to 100% throughout.

As to `CC(C)c1ccc(F)cc1N1CS/C1=N\N=C\c1ccc(-c2ncn(-c3ccc(C(F)(C(F)(F)F)C(F)(F)C(F)(F)F)cc3)n2)cc1` (stereo not drawn) [Compound 258C], the pest or weed control at 50 µg/cm2, 50 µg/cm2 in experiment [1] is 0 to 50%; in experiment [2], 50 to 100%.

With `CC(C)c1ccc(F)cc1N1CS/C1=N\N=C\c1ccc(-c2ncn(-c3ccc(C(C)(F)F)cc3)n2)cc1` [Compound 259C], the pest or weed control at 50 µg/cm2, 50 µg/cm2 in experiment [1] and in experiment [2] was 50 to 100% each time.

On to `CC(C)c1ccc(F)cc1N1CS/C1=N\N=C\c1ccc(-c2ncn(-c3ccc(C(F)(F)C(F)(F)F)cc3)n2)cc1` [Compound 260C], for which the pest or weed control at 50 µg/cm2, 50 µg/cm2 in experiment [1] and in experiment [2] was 50 to 100% each time.

As for `CC(C)c1cc(F)ccc1N1CS/C1=N\N=C\c1ccc(-c2ncn(-c3ccc(C(F)(F)F)cc3)n2)cc1` [Compound 261C], the pest or weed control at 50 µg/cm2, 50 µg/cm2 in experiment [1] and in experiment [2] was 50 to 100% each time.
